# Source: ChEMBL document CHEMBL5728415, “Heteroaryl-substituted sulfonamide compounds and their use as therapeutic agents” (2021)
# Columns and labels:
# [1] = Sodium Influx Assay (In Vitro Assay): This sodium influx assay employs the use of the cell permeable, sodium sensitive dye ANG2 to quantify sodium ion influx through sodium channels which are maintained in an open state by use of sodium channel modulators. This high throughput sodium influx assay allows for rapid profiling and characterization of sodium channel blockers.In general, Trex HEK293 …
# [2] = biological target: Sodium channel protein type 8 subunit alpha (Homo sapiens, UniProt Q9UQD0); assay: as above
# Chain of Sodium channel protein type 8 subunit alpha (Q9UQD0 whole entry): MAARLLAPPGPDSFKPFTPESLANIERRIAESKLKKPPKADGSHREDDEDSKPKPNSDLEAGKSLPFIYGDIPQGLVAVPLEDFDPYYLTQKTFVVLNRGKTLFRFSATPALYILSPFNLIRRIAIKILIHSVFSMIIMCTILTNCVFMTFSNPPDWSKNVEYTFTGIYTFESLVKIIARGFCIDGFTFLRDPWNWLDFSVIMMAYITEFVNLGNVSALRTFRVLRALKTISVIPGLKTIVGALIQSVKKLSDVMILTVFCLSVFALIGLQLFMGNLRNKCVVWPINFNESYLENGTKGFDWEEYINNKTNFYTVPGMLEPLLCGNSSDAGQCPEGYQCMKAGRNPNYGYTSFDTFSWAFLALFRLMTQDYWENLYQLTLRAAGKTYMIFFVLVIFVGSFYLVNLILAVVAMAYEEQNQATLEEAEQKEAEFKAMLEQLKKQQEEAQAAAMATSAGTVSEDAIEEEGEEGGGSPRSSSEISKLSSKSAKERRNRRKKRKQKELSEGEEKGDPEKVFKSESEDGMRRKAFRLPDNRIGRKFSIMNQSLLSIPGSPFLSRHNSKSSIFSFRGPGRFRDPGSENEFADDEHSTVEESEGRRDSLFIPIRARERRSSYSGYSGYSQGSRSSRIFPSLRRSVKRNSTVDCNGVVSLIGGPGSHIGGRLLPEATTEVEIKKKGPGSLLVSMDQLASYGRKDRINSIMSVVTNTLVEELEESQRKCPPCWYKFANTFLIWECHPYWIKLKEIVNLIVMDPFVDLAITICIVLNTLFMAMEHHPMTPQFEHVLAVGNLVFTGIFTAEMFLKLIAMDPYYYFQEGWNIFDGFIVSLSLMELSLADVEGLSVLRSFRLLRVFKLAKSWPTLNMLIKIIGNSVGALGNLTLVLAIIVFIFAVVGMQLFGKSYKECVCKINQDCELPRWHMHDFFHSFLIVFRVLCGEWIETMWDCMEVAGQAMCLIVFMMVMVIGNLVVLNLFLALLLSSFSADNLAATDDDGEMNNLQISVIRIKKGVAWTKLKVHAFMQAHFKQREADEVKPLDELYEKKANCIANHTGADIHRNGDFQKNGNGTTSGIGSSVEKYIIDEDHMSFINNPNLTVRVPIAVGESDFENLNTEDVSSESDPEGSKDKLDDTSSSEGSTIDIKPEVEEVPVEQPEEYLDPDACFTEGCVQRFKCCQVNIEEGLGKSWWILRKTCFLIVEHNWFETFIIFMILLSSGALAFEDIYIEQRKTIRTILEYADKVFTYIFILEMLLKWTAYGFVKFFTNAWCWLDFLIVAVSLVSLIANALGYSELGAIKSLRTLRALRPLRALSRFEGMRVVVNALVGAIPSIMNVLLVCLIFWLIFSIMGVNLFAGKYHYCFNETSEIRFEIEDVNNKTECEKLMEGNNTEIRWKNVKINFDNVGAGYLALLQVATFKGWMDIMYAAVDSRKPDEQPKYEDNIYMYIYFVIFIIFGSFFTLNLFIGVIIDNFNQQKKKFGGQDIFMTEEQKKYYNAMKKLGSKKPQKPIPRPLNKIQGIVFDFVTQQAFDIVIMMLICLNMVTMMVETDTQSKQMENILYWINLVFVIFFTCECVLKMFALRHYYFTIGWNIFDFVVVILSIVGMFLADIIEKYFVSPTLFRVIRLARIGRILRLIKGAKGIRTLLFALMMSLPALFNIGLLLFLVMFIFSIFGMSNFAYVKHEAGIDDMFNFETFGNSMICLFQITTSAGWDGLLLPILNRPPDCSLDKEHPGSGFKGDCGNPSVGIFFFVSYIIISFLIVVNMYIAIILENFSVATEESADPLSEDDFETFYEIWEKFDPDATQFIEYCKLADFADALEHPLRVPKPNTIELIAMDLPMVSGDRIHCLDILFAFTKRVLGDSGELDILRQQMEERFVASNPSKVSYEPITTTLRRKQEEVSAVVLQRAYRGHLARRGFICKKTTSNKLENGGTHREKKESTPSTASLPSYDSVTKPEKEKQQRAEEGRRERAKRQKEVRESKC
SMILES,IC50 [1] [µM],IC50 [2] [µM]
Cc1cc(S(=O)(=O)Nc2cccc(F)n2)ncc1NCc1c(F)cccc1CN1CCCC1,28.8,
Cc1nc(S(=O)(=O)Nc2cscn2)c(F)cc1NCc1c(F)cccc1CN1C2CCC1CC2,,0.037
Cc1nc(NCc2c(F)cccc2CN2CCCC2)ccc1S(=O)(=O)Nc1cscn1,6.18,
